From patent US20100221228A1, “y134.5 Deficient HSV and the MAPK Pathway” (The University of Chicago, priority 2006, published 2010)

Key:
[1] = tested on: HT1080 cells infected with R3616; assay: MEK inhibitor study: R3616 yield in HT1080 cells with PD98059 or DMSO; format: cell-based, human
Method: (§1) Inhibitor studies—For experiments employing the known MEK inhibitor, PD98059, HT1080 cells were starved over night in serum-free medium and then exposed to 40 μM of PD98059 (EMD Biosciences, San Diego, Calif.), or DMSO (1:1000 dilution) 6 hours prior to, and during, infection. At 12 hours post-infection, whole cell lysates were created as described above for immunoblotting.
Finally, to determine if MEK inhibition affects viral replication, DMSO or PD98059 (40 μM) was added to replicate cultures of HT1080 cells 6 hours prior to, and during, infection with R3616 (1 PFU/cell).

[2] = tested on: HT1080 cells infected with R3616; assay: MEK inhibitor study: immunoblotting of viral proteins and phospho-PKR; format: cell-based, human
Method: as §1
To determine if MEK mediates the observed mutant Ras-dependent suppression of PKR activation and resultant accumulation of viral proteins in HT1080 cells infected with mutant virus R3616, the relative expressions of representative a (ICP27), β (U142) and γ2 (glycoprotein C) viral proteins in cells treated with a specific chemical inhibitor of MEK-1 (PD98059) were compared. Replicate cultures of HT1080 cells were serum-starved overnight prior to exposure to equal volumes of DMSO or PD98059 (40 μM) for 6 hours prior to infection with R3616 mutant virus (10 PFU/cell). DMSO or drug treatment was then continued until the cells were harvested at 12 hours post-infection. The cells were then lysed and the lysates were subjected to electrophoresis in denaturing polyacrylamide gels, followed by transferring to PVDF membranes and reacting with antibody to ICP27, UL42, or gC. […] To test whether the decrease in the accumulation of gC correlated with activation of PKR, the electrophoretically separated lysates were also probed with antibody to the auto-phosphorylated form of PKR (P-Thr446). The presence of PD98059 prior to, and during, infection with R3616 […] the amount of activated PKR in HT1080 cells (FIG. 6, panel B).

[3] = PD98059 40 μM, R3616 10 PFU/cell, 12 hours post-infection

COc1cccc(-c2cc(=O)c3ccccc3o2)c1N [PD98059]
yield of R3616 lower than in the presence of DMSO ([1]; PD98059 40 μM): approximately 15 fold | yield of R3616 mutant virus ([1]; in the presence of PD98059 40 μM, 6 hours prior to and during infection, 1 PFU/cell, 36 hours): 1.67×10^5 PFU/ml | amount of activated PKR (P-Thr446) ([2]; PD98059 40 μM prior to and during infection with R3616): increased | accumulation of ICP27 and UL42 proteins [2, 3]: slight effect | amounts of gC that accumulated [2, 3]: very dramatic decrease
